Reference: ChEMBL document CHEMBL3352323, “Lead optimization of a pyrazole sulfonamide series of Trypanosoma brucei N-myristoyltransferase inhibitors: identification and evaluation of CNS penetrant compounds as potential treatments for stage 2 human African trypanosomiasis” (J Med Chem, 2014)
Activity calls are given as the source filed them. No cut-off for these calls is given here.

Columns and labels:
[1] = Inhibition of Trypanosoma brucei N-myristoyltransferase assessed as transfer of [3H]-myristic acid to a biotinylated substrate peptide (GCGGSKVKPQPPQAK(biotin)-amide by scintillation proximity assay
MRC5 = experiment: cells; conditions: Homo sapiens, MRC5, 69 h
Description: Antiproliferative activity against human MRC5 cells assessed as reduction cell viability incubated for 69 hrs by rezasurin dye based assay

Trypanosoma brucei = experiment: microbe, parasite or virus in culture; conditions: BSF427, 69 h
Description: Antitrypanosomal activity against Trypanosoma brucei BSF427 expressing VSG118 infected in human MRC5 cells assessed as reduction cell viability incubated for 69 hrs by rezasurin dye based assay

[2] = biological target: T1, Glycylpeptide N-tetradecanoyltransferase 1 (Homo sapiens, UniProt P30419); experiment: Inhibition of human N-myristoyltransferase 1 assessed as transfer of [3H]-myristic acid to a biotinylated substrate peptide (GCGGSKVKPQPPQAK(biotin)-amide by scintillation proximity assay
T1 sequence (P30419 whole entry): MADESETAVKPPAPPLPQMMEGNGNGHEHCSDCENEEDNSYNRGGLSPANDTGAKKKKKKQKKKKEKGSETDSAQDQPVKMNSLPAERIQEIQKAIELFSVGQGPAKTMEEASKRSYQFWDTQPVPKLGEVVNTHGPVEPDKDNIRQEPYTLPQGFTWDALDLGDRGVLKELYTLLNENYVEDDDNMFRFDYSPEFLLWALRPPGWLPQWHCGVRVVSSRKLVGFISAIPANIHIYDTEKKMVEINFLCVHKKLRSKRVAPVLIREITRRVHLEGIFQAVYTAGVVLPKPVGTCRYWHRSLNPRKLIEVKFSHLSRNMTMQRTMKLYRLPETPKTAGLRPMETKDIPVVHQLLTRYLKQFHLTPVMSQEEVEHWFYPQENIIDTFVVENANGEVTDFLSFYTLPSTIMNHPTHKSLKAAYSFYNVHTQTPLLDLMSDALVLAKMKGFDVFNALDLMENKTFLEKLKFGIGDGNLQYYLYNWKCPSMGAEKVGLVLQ

[3] = Selectivity index, IC50 for human N-myristoyltransferase to EC50 for Trypanosoma brucei; type: functional
Mus musculus [4] = experiment: (§1) Maximum tolerated dose in orally twice daily dosed mouse; type: ADME, organism-based; conditions: in vivo, po
[5] = biological target: Voltage-gated inwardly rectifying potassium channel KCNH2 (Homo sapiens, UniProt Q12809); experiment: Inhibition of human ERG
Chain of Voltage-gated inwardly rectifying potassium channel KCNH2 (Q12809 whole entry): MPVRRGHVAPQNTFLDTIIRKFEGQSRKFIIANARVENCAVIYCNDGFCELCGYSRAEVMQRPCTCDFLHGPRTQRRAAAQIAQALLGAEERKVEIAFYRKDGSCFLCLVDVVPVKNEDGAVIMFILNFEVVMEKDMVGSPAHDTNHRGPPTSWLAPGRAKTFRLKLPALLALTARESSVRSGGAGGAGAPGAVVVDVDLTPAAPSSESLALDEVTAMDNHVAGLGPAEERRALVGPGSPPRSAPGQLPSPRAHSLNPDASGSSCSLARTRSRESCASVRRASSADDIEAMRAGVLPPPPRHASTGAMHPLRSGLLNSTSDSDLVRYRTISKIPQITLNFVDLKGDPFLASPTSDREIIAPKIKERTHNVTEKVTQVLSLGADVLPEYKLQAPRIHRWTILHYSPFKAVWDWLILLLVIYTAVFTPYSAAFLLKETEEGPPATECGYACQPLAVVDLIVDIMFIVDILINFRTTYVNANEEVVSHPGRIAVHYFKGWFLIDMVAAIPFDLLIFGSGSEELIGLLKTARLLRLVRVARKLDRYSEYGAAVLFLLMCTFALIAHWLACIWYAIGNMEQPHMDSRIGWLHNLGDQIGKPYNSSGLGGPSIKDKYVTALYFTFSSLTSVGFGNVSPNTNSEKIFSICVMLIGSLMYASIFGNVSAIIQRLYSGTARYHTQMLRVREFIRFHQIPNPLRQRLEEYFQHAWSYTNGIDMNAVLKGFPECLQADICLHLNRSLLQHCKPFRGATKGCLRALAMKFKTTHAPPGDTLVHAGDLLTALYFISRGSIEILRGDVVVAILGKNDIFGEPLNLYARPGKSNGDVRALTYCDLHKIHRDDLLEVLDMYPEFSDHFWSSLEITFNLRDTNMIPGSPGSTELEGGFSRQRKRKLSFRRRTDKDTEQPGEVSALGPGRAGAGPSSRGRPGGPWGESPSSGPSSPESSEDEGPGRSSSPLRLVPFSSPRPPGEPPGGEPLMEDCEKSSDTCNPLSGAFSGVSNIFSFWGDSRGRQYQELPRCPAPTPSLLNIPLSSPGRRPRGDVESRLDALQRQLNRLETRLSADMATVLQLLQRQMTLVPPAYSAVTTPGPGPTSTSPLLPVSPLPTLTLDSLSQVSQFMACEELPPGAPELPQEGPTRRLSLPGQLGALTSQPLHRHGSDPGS

Mus musculus [6] = experiment: Toxicity in bloodstream form of Trypanosoma brucei beucei GVR35 infected NMRI mouse stage 2 human African trypanosomiasis model at 100 mg/kg, po bid for 5 days; type: organism-based; design: dose 100 mg/kg, route oral; conditions: in vivo, 120 h
[7] = test system: Trypanosoma brucei brucei; experiment: Trypanocidal activity against bloodstream form of Trypanosoma brucei beucei GVR35 infected in NMRI mouse stage 2 human African trypanosomiasis model at 100 mg/kg, po bid for 8 days followed by three rounds of 3 day dosing at 100 mg/kg with two day drug holiday between rounds; type: functional, organism-based
Mus musculus [8] = experiment: AUC (0 to 8 hrs) in NMRI mouse at 10 mg/kg, po by UPLC-MS/MS method; type: ADME, organism-based, Plasma; design: time < 8 hr, dose 10 mg/kg, route oral; conditions: in vivo
Mus musculus [9] = experiment: Oral bioavailability in NMRI mouse at 10 mg/kg by UPLC-MS/MS method; type: ADME, organism-based; conditions: in vivo
[10] = test system: Trypanosoma brucei rhodesiense; experiment: Trypanocidal activity against bloodstream form of Trypanosoma brucei rhodesiense STIB900 infected in twice daily po dosed mouse; type: functional
Mus musculus [11] = experiment: Toxicity in bloodstream form of Trypanosoma brucei beucei GVR35 infected NMRI mouse stage 2 human African trypanosomiasis model at 50 mg/kg, po bid for 5 days; type: organism-based; design: dose 50 mg/kg, route oral; conditions: in vivo, 120 h
[12] = test system: Trypanosoma brucei brucei; experiment: Trypanocidal activity against bloodstream form of Trypanosoma brucei beucei GVR35 infected in NMRI mouse stage 2 human African trypanosomiasis model at 25 mg/kg, po bid for 10 days; type: functional, organism-based; design: dose 25 mg/kg
[13] = test system: Trypanosoma brucei brucei; experiment: Trypanocidal activity against bloodstream form of Trypanosoma brucei beucei GVR35 infected in NMRI mouse stage 2 human African trypanosomiasis model at 50 mg/kg, po bid for 8 days; type: functional, organism-based; design: dose 50 mg/kg
Mus musculus [14] = experiment: Toxicity in bloodstream form of Trypanosoma brucei beucei GVR35 infected NMRI mouse stage 2 human African trypanosomiasis model at 50 mg/kg, po bid for 8 days; type: organism-based; design: dose 50 mg/kg, route oral; conditions: in vivo, 192 h
[15] = test system: Trypanosoma brucei brucei; experiment: Trypanocidal activity against Trypanosoma brucei beucei GVR35 infected in NMRI mouse acute model dosed twice daily orally for 4 days; type: functional
[16] = test system: Trypanosoma brucei brucei; experiment: Trypanocidal activity against Trypanosoma brucei beucei S427 infected in NMRI mouse acute model dosed twice daily orally for 4 days; type: functional
[17] = Ratio of drug level in brain to blood in wild type NMRI mouse at 2 mg free base/kg, iv by UPLC-MS/MS method; type: ADME, organism-based; conditions: brain and blood, read-out: BBR
[18] = Ratio of drug level in brain to blood in mdr1a-deficient mouse; type: ADME, organism-based; conditions: brain and blood, read-out: BBR
[19] = Plasma protein binding in mouse; type: ADME, organism-based; conditions: read-out: PPB (converted)
[20] = test system: Trypanosoma brucei brucei; experiment: Trypanocidal activity against bloodstream form of Trypanosoma brucei brucei S427 infected in mouse stage 1 HAT model at […], po bid for 4 days; type: functional, organism-based
[21] = test system: Trypanosoma brucei rhodesiense; experiment: Trypanocidal activity against bloodstream form of Trypanosoma brucei rhodesiense STIB900 infected in mouse stage 1 HAT model at 50 mg/kg, po bid for 4 days; type: functional, organism-based; design: dose 50 mg/kg
[22] = as §1; type: ADME, organism-based; conditions: in vivo, po
Mus musculus [23] = experiment: Toxicity in bloodstream form of Trypanosoma brucei beucei GVR35 infected NMRI mouse stage 2 human African trypanosomiasis model at 150 mg/kg, po bid for 5 days; type: organism-based; design: dose 150 mg/kg, route oral; conditions: in vivo, 120 h
[24] = test system: Trypanosoma brucei brucei; experiment: Trypanocidal activity against bloodstream form of Trypanosoma brucei beucei GVR35 infected in NMRI mouse stage 2 human African trypanosomiasis model at 150 mg/kg, po bid for 5 days; type: functional, organism-based; design: dose 150 mg/kg

| Compound | IC50 [1] [nM] | EC50 (MRC5) [nM] | EC50 (Trypanosoma brucei) [nM] | also measured |
| --- | --- | --- | --- | --- |
| Cc1nn(C)c(C)c1NS(=O)(=O)c1c(Cl)cc(CCCC2CCN(C)CC2)cc1Cl | 2 | 2200 | 2 | – |
| Cc1nn(C)c(C)c1NS(=O)(=O)c1c(Cl)cc(CCCCC2CCN(C)CC2)cc1Cl | 1 | 180 | 0.5 | – |
| Cc1c(NS(=O)(=O)c2c(Cl)cc(-c3ccnc(N4CCNCC4)c3)cc2Cl)cnn1C | – | 1230 | 24 | – |
| Cc1nn(C)c(C)c1N(C(F)F)S(=O)(=O)c1c(Cl)cc(CCCOC[C@H]2CCCN2C)cc1Cl | 2 | 3200 | – | – |
| Cc1nn(C)c(CC(C)C)c1NS(=O)(=O)c1c(Cl)cc(-c2ccnc(N3CCNCC3)c2)cc1Cl | 6 | 640 | 5 | – |
| Cc1nn(C)c(C)c1N(C(F)F)S(=O)(=O)c1c(Cl)cc(CCCOC[C@@H]2CCCCN2C)cc1Cl | 2 | 3900 | – | – |
| Cc1nn(C)c(C)c1NS(=O)(=O)c1c(Cl)cc(CCCC2CCNCC2)cc1Cl | 2 | 2500 | 2 | – |
| Cc1nn(C)c(C)c1NS(=O)(=O)c1c(Cl)cc(C#Cc2cncn2C)cc1Cl | 660 | 16600 | 3900 | – |
| Cc1nn(C)c(C)c1NS(=O)(=O)c1ccc(CCCN2CCN(C)CC2)cc1 | 120 | > 50000 | 750 | IC50 [2]: 3500 nM; Selectivity Index [3]: 4.7 |
| Cc1nn(C)c(C)c1NS(=O)(=O)c1ccc(CCCC2CCNCC2)cc1 | 9 | > 50000 | 110 | – |
| Cc1nn(C)c(C)c1NS(=O)(=O)c1c(Cl)cc(CCCCC2CCNCC2)cc1Cl | 3 | 370 | 0.6 | – |
| Cc1nn(C)c(C)c1NS(=O)(=O)c1ccc(CCCCC2CCN(C)CC2)cc1 | 3 | 3600 | 16 | – |
| Cc1nn(C)c(C)c1N(C(F)F)S(=O)(=O)c1c(Cl)cc(CCCC2CCN(C)CC2)cc1Cl | – | – | – | MTD (Mus musculus [4]): 100 mg/kg; IC50 [5]: 600 nM; Activity (Mus musculus [6]): Toxic; inhibition [7]: Active |
| Cc1c(NS(=O)(=O)c2c(Cl)cc(-c3ccnc(N4CCNCC4)c3)cc2Cl)c(CC(C)C)nn1C [ZELENIRSTAT] | – | – | – | AUC (Mus musculus [8]): 3400 µg/min/mL; F (Mus musculus [9]): 93%; MCD [10]: 6 mg/kg |
| Cc1nn(C)c(C)c1N(C(F)F)S(=O)(=O)c1c(Cl)cc(CCCCC2CCN(C)CC2)cc1Cl | – | – | – | MTD (Mus musculus [4]): 50 mg/kg; Activity (Mus musculus [11]): Toxic; inhibition [12]: inactive; inhibition [13]: inactive; Activity (Mus musculus [14]): Toxic; MCD [15]: 25 mg/kg; MCD [16]: 6 mg/kg |
| Cc1nn(C)c(C)c1NS(=O)(=O)c1ccc(CCCC2CCN(C)CC2)cc1 | 7 | 18700 | 30 | – |
| Cc1nn(C)c(C)c1NS(=O)(=O)c1c(Cl)cc(C#CCN2CCN(C)CC2)cc1Cl | 160 | > 50000 | 660 | IC50 [2]: 4600 nM; Selectivity Index [3]: 7 |
| Cc1nn(C)c(C)c1N(C(F)F)S(=O)(=O)c1c(Cl)cc(CCCOC[C@H]2CCCCN2C)cc1Cl | 2 | 3500 | – | – |
| Cc1nn(C)c(C)c1N(C(F)F)S(=O)(=O)c1c(Cl)cc(CCCN2CCN3CCC[C@@H]3C2)cc1Cl | 2 | 3100 | – | – |
| Cn1cc(NS(=O)(=O)c2c(Cl)cc(-c3ccnc(N4CCNCC4)c3)cc2Cl)cn1 | – | 10300 | 370 | – |
| Cc1nn(C)c(C)c1N(C(F)F)S(=O)(=O)c1c(Cl)cc(CCCOC[C@@H]2CCCN2C)cc1Cl | 2 | 2800 | – | – |
| Cc1nn(C)c(C)c1NS(=O)(=O)c1c(Cl)cc(Br)cc1Cl | 500 | > 50000 | 16000 | IC50 [2]: 7300 nM; Kp [17]: < 0.1; Kp [18]: < 0.1 |
| Cc1nn(C)c(C)c1NS(=O)(=O)c1ccc(CCCCC2CCNCC2)cc1 | 6 | 5300 | 9 | – |
| Cc1nn(C)c(C)c1N(C)S(=O)(=O)c1c(Cl)cc(Br)cc1Cl | 330 | 27200 | 5100 | IC50 [2]: 3580 nM; Kp [17]: 3.7; Kp [18]: 3.7 |
| Cc1nn(C)cc1NS(=O)(=O)c1c(Cl)cc(-c2ccnc(N3CCNCC3)c2)cc1Cl | 4 | 250 | 2 | – |
| Cc1nn(C)c(C)c1NS(=O)(=O)c1c(Cl)cc(CCCN2CCN(C)CC2)cc1Cl | 3 | 31400 | – | – |
| Cc1nn(C)c(C)c1NS(=O)(=O)c1c(Cl)cc(-c2ccnc(N3CCNCC3)c2)cc1Cl | – | – | – | fraction unbound [19]: 0.06; Activity [20]: Active; Activity [21]: Active; AUC (Mus musculus [8]): 392 µg/min/mL; F (Mus musculus [9]): 20%; MCD [10]: 50 mg/kg |
| Cc1nn(C)c(C)c1N(CC(F)(F)F)[S+](=O)([O-])c1c(Cl)cc(CCCC2CCN(C)CC2)cc1Cl | – | – | – | MTD [22]: 150 mg/kg; Activity (Mus musculus [23]): Non-toxic |
| Cc1nn(C)c(C)c1N(CC(F)(F)F)S(=O)(=O)c1c(Cl)cc(CCCC2CCN(C)CC2)cc1Cl | – | – | – | inhibition [24]: inactive |
